Measurements from PubChem BioAssay (NCI).
Several values for one entry are separate records, joined by “and”; a condition that tells them apart may be missing. Identical values can stand only once.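 All cell lines were grown in 96-well plates and treated with compound for 48 hours. GI50: concentration for 50% inhibition of growth. TGI: total growth inhibition.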

Legend:
Assay in all cases: growth of human tumour cells (NCI), 48 h
[1] = system: MDA-N
[2] = system: XF 498 CNS
[3] = system: DMS 114 small cell lung
[4] = system: LXFL 529 NSCLC
[5] = system: KM20L2 colon
[6] = system: SNB-78 CNS
[7] = system: DMS 273 small cell lung
[8] = system: M19-MEL melanoma
[9] = system: RXF-631 renal

For `CC(C)(C)OC[C@H](O)CC#N`, the TGI [1] was > 100 µM.
`O=C(OC[C@H]1O[C@@H](OC(=O)c2cc(O)c(O)c(O)c2)[C@H](OC(=O)c2cc(O)c(O)c(O)c2)[C@@H](OC(=O)c2cc(O)c(O)c(O)c2)[C@@H]1OC(=O)c1cc(O)c(O)c(O)c1)c1cc(O)c(O)c(O)c1` was tested, and the TGI [2] was 22.5 µM, the TGI [3] was 15.9 µM and the TGI [4] was > 100 µM. The TGI [5] was > 100 µM, the TGI [6] was 80.3 µM and the TGI [7] was 7.07 µM. For the same compound, the TGI [8] was 83.2 µM.
For `O=c1[nH]c(=O)n(C2OC3COC2C3O)cc1F` (stereo not given), the TGI [2] was > 100 µM, the TGI [9] was > 100 µM and the TGI [4] was > 100 µM. For the same compound, the TGI [5] was > 100 µM, the TGI [6] was > 100 µM and the TGI [7] was > 100 µM.
`C=C1C(=O)OC2/C=C(\C=O)CC/C=C(\C)C(O)C[C@@H]12` (stereo not given in full) was tested, and the TGI [2] was 16.1 µM, the TGI [3] was 26.6 µM and the TGI [4] was 13.6 µM. The TGI [5] was 22.4 µM, the TGI [6] was 18.8 µM and the TGI [7] was 15.7 µM. It also gave a TGI [8] of 19.2 µM.
`O=C([CH-]C(=O)C(F)(F)F)c1ccccc1.O=C([CH-]C(=O)C(F)(F)F)c1ccccc1.O=C([CH-]C(=O)C(F)(F)F)c1ccccc1.O=C([CH-]C(=O)C(F)(F)F)c1ccccc1.[Eu+3].c1ccncc1` was tested, and the GI50 [4] was 4.2 µM, the TGI [4] was > 100 µM and the GI50 [5] was 26.7 µM. The TGI [5] was > 100 µM, the GI50 [7] was 8.87 µM and the TGI [7] was > 100 µM. It also gave a GI50 [8] of 10 µM and a TGI [8] of 62.8 µM.
`O=C1NC2(CN3CCC2CC3)C(=O)N1CN(Cc1ccccc1)c1ccccc1` (stereo not given) was tested, and the TGI [1] was > 100 µM.
With `COc1ccc(/C=C2\C(=O)N(C(=O)Cc3ccccc3)N=C2C)cc1OC` the TGI [2] was > 100 µM, the TGI [3] was > 100 µM and the TGI [6] was > 100 µM. The TGI [7] was > 100 µM and the TGI [8] was > 100 µM.
`N.N.N.N.N.N.O=N[O-].[Br-].[Co+3].[Co+3].[OH3+].[OH3+]` was tested, and the GI50 [4] was > 100 µM, the TGI [4] was > 100 µM and the GI50 [6] was > 100 µM. The TGI [6] was > 100 µM.
For `O=C(O)CSc1ncccc1[N+](=O)[O-]`, the TGI [1] was > 100 µM.
`CCN(CC)CCNc1n[n+]([O-])c2ccccc2[n+]1[O-]` was tested, and the TGI [1] was > 100 µM and 31.8 µM.
In the case of `Cn1c(=O)c2c(ncn2CN2CCN(Cn3cnc4c3c(=O)n(C)c(=O)n4C)CC2)n(C)c1=O`, the TGI [1] was > 100 µM.
In the case of `COC(=O)c1c(-c2ccccc2)sc(-c2cccc3ccccc23)c1C(=O)OC`, the TGI [4] was > 100 µM, the TGI [5] was > 100 µM and the TGI [6] was > 100 µM. For the same compound, the TGI [7] was > 100 µM and the TGI [8] was > 100 µM.
With `Cc1cc2c(=O)c3ccccc3[nH]c2c(C(=O)O)c1C` the TGI [2] was > 100 µM, the TGI [3] was > 100 µM and the TGI [4] was > 100 µM. The TGI [5] was > 100 µM, the TGI [6] was > 100 µM and the TGI [7] was > 100 µM. The TGI [8] was > 100 µM.
In the case of `CCOC(=O)COS(=O)(=O)C(F)(F)F`, the TGI [2] was > 100 µM, the TGI [3] was 31.7 µM and the TGI [9] was > 100 µM. The TGI [4] was > 100 µM, the TGI [5] was > 100 µM and the TGI [6] was > 100 µM. For the same compound, the TGI [7] was 36.7 µM and the TGI [8] was > 100 µM.
In the case of `C=C=C(C(=O)OC)S(=O)c1ccc([N+](=O)[O-])cc1[N+](=O)[O-]` (stereo not given), the TGI [2] was > 71.2 µM, the TGI [3] was 45.6 µM and the TGI [9] was > 69.7 µM. For the same compound, the TGI [4] was 38 µM, the TGI [5] was 63.8 µM and the TGI [7] was 64.1 µM. For the same compound, the TGI [8] was 62 µM.
In the case of `COc1cc(Br)c(C=Nc2cccc3ccc(OS(=O)(=O)c4cccc([N+](=O)[O-])c4)cc23)cc1OC`, the TGI [3] was > 100 µM, the TGI [4] was > 100 µM and the TGI [6] was 72.9 µM. The TGI [8] was > 100 µM.
For `CNC(=S)N/N=C/c1ccc([N+](=O)[O-])s1`, the TGI [1] was > 10 µM.
With `Nc1nc(CCC(=O)Nc2cccc(C(F)(F)F)c2)cc(-c2ccc3ccccc3c2)n1` the TGI [2] was > 100 µM, the TGI [3] was > 100 µM and the TGI [4] was > 100 µM. For the same compound, the TGI [5] was > 100 µM, the TGI [6] was > 100 µM and the TGI [7] was > 100 µM. For the same compound, the TGI [8] was > 100 µM.
`COC1CC(OC(=O)c2ccccc2)C(OC(=O)c2ccccc2)C(C)O1` (stereo not given) was tested, and the TGI [1] was > 100 µM.
In the case of `S=c1nc(-c2cccnc2)[nH][nH]1`, the TGI [2] was > 100 µM, the TGI [3] was > 100 µM and the TGI [4] was > 100 µM. The TGI [5] was > 100 µM, the TGI [6] was > 100 µM and the TGI [7] was > 100 µM.
For `C1=CC=C2NCCOCCNC3=CC=CC=CC3=NCCOCCN=C2C=C1`, the TGI [3] was > 100 µM, the TGI [9] was > 100 µM and the TGI [4] was > 100 µM. The TGI [5] was 79.3 µM, the TGI [6] was > 100 µM and the TGI [7] was > 100 µM. For the same compound, the TGI [8] was > 100 µM.
With `Cc1nc(C(N)=S)sc1C(=O)C/C(=N/N)C(=O)Nc1cccc(Cl)c1C` the TGI [1] was > 100 µM.
In the case of `Fc1cccc(Cl)c1/C=N\N=C1c2ccccc2-c2ccccc21`, the TGI [1] was > 100 µM.
`CCc1c(C)c(C#N)c(=S)n(C2OC(CO)C(O)C(O)C2O)c1C` (stereo not given) was tested, and the TGI [1] was > 100 µM.
For `CSC1=NS(=O)(=O)c2cc(C(=O)NN(C)C(=O)c3cc4c(cc3Cl)SC(SC)=NS4(=O)=O)c(Cl)cc2S1`, the TGI [1] was > 10 µM.
For `CC[C@@]1(O)C(=O)OCc2c1cc1n(c2=O)Cc2cc3cc(N)ccc3nc2-1`, the GI50 [2] was 0.149 µM and 0.138 µM, the TGI [2] was 1.39 µM and 0.864 µM and the GI50 [4] was 0.204 µM. The TGI [4] was 3.15 µM, the GI50 [1] was 0.227 µM and the TGI [1] was 1.4 µM and 0.27 µM. The GI50 [5] was 0.0314 µM and 0.0373 µM, the TGI [5] was 0.854 µM and 0.547 µM and the GI50 [6] was 0.0463 µM and 0.212 µM. The GI50 [7] was 0.00263 µM, the TGI [7] was 0.129 µM and 0.179 µM and the TGI [8] was 0.289 µM and 0.222 µM.
With `O=S1(=O)c2ccccc2NC(=S)CC1c1ccccc1` (stereo not given) the TGI [1] was > 100 µM.
With `COC(=O)C1=C(CS(=O)c2ccccc2[N+](=O)[O-])ON(C)C1c1ccccc1` (stereo not given) the TGI [2] was 86.2 µM, the TGI [3] was 65.5 µM and the TGI [4] was > 100 µM. For the same compound, the TGI [5] was 85.1 µM, the TGI [6] was > 100 µM and the TGI [7] was > 100 µM. The TGI [8] was > 100 µM.
Compound `CC1(C)C2CCC3(C2)CS(=O)(=O)N2OC231` (stereo not given) has a TGI [3] of 26.8 µM, a TGI [4] of 30.6 µM and a TGI [5] of 30.6 µM. The TGI [6] was 47.2 µM, the TGI [7] was 58.5 µM and the TGI [8] was 29.8 µM.
